# Measurements from US11684067B2, “Generation of peroxyformic acid through polyhydric alcohol formate” (priority 2014, dated 2023).
# Experiments:
# [1] = system: Aspergillus brasiliensis ATCC 16404; experiment: Fungicidal/yeasticidal activity of ester PFA versus POAA (Example 22); format: cell-based; settings: for Average CFU/mL / Log10 Growth / Log10 Reduction: 20°C, dirty
# Excerpt: Canidia and Aspergillus pathogens were used to evaluate the micro efficacy of ester PFA generated according to methods of the present invention in comparison to POAA.
# [2] = system: Aspergillus brasiliensis ATCC 16404; experiment: Fungicidal activity of ester PFA, dirty conditions (Example 20); format: cell-based; settings: 5 minutes
# Excerpt: (§1) Various Bacillus and Aspergillus pathogens were used to evaluate the micro efficacy of ester PFA generated according to methods of the present invention.
# [3] = system: Staphylococcus aureus ATCC 6538; experiment: Bactericidal activity of ester PFA versus POAA, EN 1276, dirty conditions; format: cell-based; settings: 20°C
# Excerpt: (§2) Additional Staphylococcus, Enterococcus and Pseudomonas pathogens were used to evaluate the micro efficacy of ester PFA generated according to methods of the present invention in comparison to POAA.
# [4] = system: Pseudomonas aeruginosa ATCC 15442; experiment: as above; format: cell-based; settings: 20°C
# Excerpt: as §2
# [5] = system: Enterococcus hirae ATCC 10541; experiment: as above; format: cell-based; settings: 20°C
# Excerpt: as §2
# [6] = cited from earlier work
# [7] = system: Bacillus subtilis ATCC 19659; experiment: Sporicidal activity of ester PFA, dirty conditions (Example 20); format: cell-based; settings: 5 minutes
# Excerpt: as §1
# [8] = system: Bacillus subtilis ATCC 6633; experiment: as above; format: cell-based; settings: 5 minutes
# Excerpt: as §1
# [9] = 200 ppm PFA pH 6.15 / 245 ppm POAA pH 6.56, 5 minutes
# [10] = 200 ppm PFA pH 6.15 / 245 ppm POAA pH 6.56, 10 minutes
# [11] = 200 ppm PFA pH 6.15 / 245 ppm POAA pH 6.56, 15 minutes
# [12] = 300 ppm PFA pH 6.21 / 368 ppm POAA pH 6.63, 5 minutes
# [13] = 300 ppm PFA pH 6.21 / 368 ppm POAA pH 6.63, 10 minutes
# [14] = 20 ppm PFA pH 6.61 / 24.8 ppm POAA pH 6.73, 5 minutes
# [15] = 30 ppm PFA pH 6.74 / 37.6 ppm POAA pH 6.90, 5 minutes
# [16] = 50 ppm PFA pH 6.60 / 62.4 ppm POAA pH 6.98, 5 minutes
compound,measurement,setting,value
"O=COO [PFA, peroxyformic acid]",reduction in A. brasiliensis conidio spores compared with POAA,"[1]; 5, 10 and 15 minutes, lower actives, FIG. 19",improved reduction
same,Average CFU/mL,[1]; [9],1.60E+04 CFU/mL
same,Log10 Growth,[1]; [9],4.20 Log10
same,Log10 Reduction,[1]; [9],1.54 Log10
same,Average CFU/mL,[1]; [10],1.75E+03 CFU/mL
same,Log10 Growth,[1]; [10],3.24 Log10
same,Log10 Reduction,[1]; [10],2.50 Log10
same,Average CFU/mL,[1]; [11],3.85E+02 CFU/mL
same,Log10 Growth,[1]; [11],2.59 Log10
same,Log10 Reduction,[1]; [11],3.16 Log10
same,Average CFU/mL,[1]; [12],4.10E+02 CFU/mL
same,Log10 Growth,[1]; [12],2.61 Log10
same,Log10 Reduction,[1]; [12],3.13 Log10
same,Average CFU/mL,[1]; [13],1.20E+02 CFU/mL
same,Log10 Growth,[1]; [13],2.08 Log10
same,Log10 Reduction,[1]; [13],3.67 Log10
same,Log10 Growth,"[2]; 200 ppm PFA pH 5.81, 35°C",>4.22 Log10
same,Log10 Reduction,"[2]; 200 ppm PFA pH 5.81, 35°C",<1.89 Log10
same,Log10 Growth,"[2]; 250 ppm PFA pH 5.82, 35°C",3.55 Log10
same,Log10 Reduction,"[2]; 250 ppm PFA pH 5.82, 35°C",2.56 Log10
same,Log10 Growth,"[2]; 300 ppm PFA pH 5.91, 35°C",3.38 Log10
same,Log10 Reduction,"[2]; 300 ppm PFA pH 5.91, 35°C",2.73 Log10
same,Log10 Growth,"[2]; 350 ppm PFA pH 5.88, 35°C",3.46 Log10
same,Log10 Reduction,"[2]; 350 ppm PFA pH 5.88, 35°C",2.65 Log10
same,Average CFU/mL,[3]; [14],<140 CFU/mL
same,Log10 Growth,[3]; [14],<2.15 Log10
same,Average CFU/mL,[3]; [15],<140 CFU/mL
same,Log10 Growth,[3]; [15],<2.15 Log10
same,Average CFU/mL,[3]; [16],<140 CFU/mL
same,Log10 Growth,[3]; [16],<2.15 Log10
same,Average CFU/mL,[4]; [14],<140 CFU/mL
same,Log10 Growth,[4]; [14],<2.15 Log10
same,Average CFU/mL,[4]; [15],<140 CFU/mL
same,Log10 Growth,[4]; [15],<2.15 Log10
same,Average CFU/mL,[4]; [16],<140 CFU/mL
same,Log10 Growth,[4]; [16],<2.15 Log10
same,Average CFU/mL,[5]; [14],6.30E + 03 CFU/mL
same,Log10 Growth,[5]; [14],3.80 Log10
same,Average CFU/mL,[5]; [15],2.15E + 02 CFU/mL
same,Log10 Growth,[5]; [15],2.33 Log10
same,Average CFU/mL,[5]; [16],<140 CFU/mL
same,Log10 Growth,[5]; [16],<2.15 Log10
same,pKa value,[6],7.2
same,Log10 Growth,"[7]; 200 ppm PFA pH 5.81, 35°C",<2.18 Log10
same,Log10 Reduction,"[7]; 200 ppm PFA pH 5.81, 35°C",>3.87 Log10
same,Log10 Growth,"[7]; 250 ppm PFA pH 5.82, 35°C",<2.18 Log10
same,Log10 Reduction,"[7]; 250 ppm PFA pH 5.82, 35°C",>3.87 Log10
same,Log10 Growth,"[7]; 300 ppm PFA pH 5.91, 35°C",<2.18 Log10
same,Log10 Reduction,"[7]; 300 ppm PFA pH 5.91, 35°C",>3.87 Log10
same,Log10 Growth,"[7]; 350 ppm PFA pH 5.88, 35°C",<2.18 Log10
same,Log10 Reduction,"[7]; 350 ppm PFA pH 5.88, 35°C",>3.87 Log10
same,Log10 Growth,"[8]; 200 ppm PFA pH 5.81, 35°C",<2.18 Log10
same,Log10 Reduction,"[8]; 200 ppm PFA pH 5.81, 35°C",>3.91 Log10
same,Log10 Growth,"[8]; 250 ppm PFA pH 5.82, 35°C",<2.18 Log10
same,Log10 Reduction,"[8]; 250 ppm PFA pH 5.82, 35°C",>3.91 Log10
same,Log10 Growth,"[8]; 300 ppm PFA pH 5.91, 35°C",<2.18 Log10
same,Log10 Reduction,"[8]; 300 ppm PFA pH 5.91, 35°C",>3.91 Log10
same,Log10 Growth,"[8]; 350 ppm PFA pH 5.88, 35°C",<2.18 Log10
same,Log10 Reduction,"[8]; 350 ppm PFA pH 5.88, 35°C",>3.91 Log10
